Results from ChEMBL document CHEMBL1156868, “One step radiosynthesis of 6-[(18)F]fluoronicotinic acid 2,3,5,6-tetrafluorophenyl ester ([(18)F]F-Py-TFP): a new prosthetic group for efficient labeling of biomolecules with fluorine-18” (J Med Chem, 2010).

target: Integrin alpha-V/beta-3 (Homo sapiens, UniProt P05106+P06756); assay: Displacement of [125I]echistatin from alphaVbeta3 receptor in human EA-Hy926 cells by gamma-counting; type: cell-based
Sequence (P05106 27-788 limits assumed): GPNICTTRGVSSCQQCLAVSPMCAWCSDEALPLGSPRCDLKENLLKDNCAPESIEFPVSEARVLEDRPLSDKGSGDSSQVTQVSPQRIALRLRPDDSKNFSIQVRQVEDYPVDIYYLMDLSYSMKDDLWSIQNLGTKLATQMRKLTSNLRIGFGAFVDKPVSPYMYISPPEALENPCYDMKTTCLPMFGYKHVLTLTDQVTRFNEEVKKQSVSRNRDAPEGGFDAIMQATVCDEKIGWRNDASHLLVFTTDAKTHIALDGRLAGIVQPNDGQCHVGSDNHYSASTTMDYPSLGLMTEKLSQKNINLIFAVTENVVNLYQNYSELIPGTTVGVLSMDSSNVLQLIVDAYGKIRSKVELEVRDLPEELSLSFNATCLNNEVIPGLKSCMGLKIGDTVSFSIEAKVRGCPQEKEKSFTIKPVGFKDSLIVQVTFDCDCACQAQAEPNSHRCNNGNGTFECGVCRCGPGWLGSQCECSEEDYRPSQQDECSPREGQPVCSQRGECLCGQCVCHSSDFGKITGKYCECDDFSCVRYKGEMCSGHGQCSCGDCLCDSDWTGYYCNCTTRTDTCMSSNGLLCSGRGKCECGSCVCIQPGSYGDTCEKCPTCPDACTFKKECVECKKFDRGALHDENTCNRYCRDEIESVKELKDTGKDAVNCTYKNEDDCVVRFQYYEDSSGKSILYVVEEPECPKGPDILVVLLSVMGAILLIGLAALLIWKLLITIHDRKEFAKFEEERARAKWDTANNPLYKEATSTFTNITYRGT
Sequence (P06756 31-889 limits assumed): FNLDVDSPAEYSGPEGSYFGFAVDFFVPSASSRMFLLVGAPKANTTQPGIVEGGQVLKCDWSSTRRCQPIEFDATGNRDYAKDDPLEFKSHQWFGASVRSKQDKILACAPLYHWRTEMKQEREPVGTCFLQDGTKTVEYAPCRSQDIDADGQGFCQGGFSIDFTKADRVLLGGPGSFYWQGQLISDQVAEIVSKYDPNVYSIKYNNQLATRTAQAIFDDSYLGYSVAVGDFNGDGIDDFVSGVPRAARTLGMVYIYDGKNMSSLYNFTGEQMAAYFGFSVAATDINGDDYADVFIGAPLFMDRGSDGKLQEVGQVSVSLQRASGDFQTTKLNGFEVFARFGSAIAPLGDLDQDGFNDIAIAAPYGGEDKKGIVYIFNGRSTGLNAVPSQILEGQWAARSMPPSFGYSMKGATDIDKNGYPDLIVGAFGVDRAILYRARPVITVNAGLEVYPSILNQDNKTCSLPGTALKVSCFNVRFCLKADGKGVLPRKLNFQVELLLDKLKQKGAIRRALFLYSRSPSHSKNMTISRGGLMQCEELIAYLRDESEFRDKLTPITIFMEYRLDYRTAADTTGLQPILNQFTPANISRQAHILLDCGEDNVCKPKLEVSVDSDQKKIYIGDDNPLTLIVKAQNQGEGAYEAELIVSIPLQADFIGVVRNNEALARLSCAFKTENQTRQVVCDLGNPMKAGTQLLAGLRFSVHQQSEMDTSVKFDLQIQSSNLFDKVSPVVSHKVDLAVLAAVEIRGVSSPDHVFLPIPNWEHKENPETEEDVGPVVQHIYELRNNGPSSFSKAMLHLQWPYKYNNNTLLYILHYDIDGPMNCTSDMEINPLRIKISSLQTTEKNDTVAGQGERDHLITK
Sequence (P06756 891-1048 limits assumed): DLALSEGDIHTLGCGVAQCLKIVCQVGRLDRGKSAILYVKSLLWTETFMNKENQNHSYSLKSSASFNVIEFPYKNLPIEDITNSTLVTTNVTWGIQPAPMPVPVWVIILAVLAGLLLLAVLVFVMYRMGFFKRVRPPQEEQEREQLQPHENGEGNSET

| Ki | Compound |
| --- | --- |
| 14.8 nM | Cc1cc(C)c(S(=O)(=O)N[C@H](CNC(=O)c2cn(CCCNC(=O)COCC(=O)NCCOCCOCCOCCOCCOCCOCCOCCOCCOCCOCCOCCNC(=O)c3ccc(F)nc3)c3cc(CNc4ncc[nH]4)ccc3c2=O)C(=O)O)c(C)c1 |
| 19.1 nM | Cc1cc(C)c(S(=O)(=O)N[C@H](CNC(=O)c2cn(CCCNC(=O)c3ccc(F)nc3)c3cc(CNc4ncc[nH]4)ccc3c2=O)C(=O)O)c(C)c1 |
| 2 nM | NC(=O)COCC(=O)NCCOCCOCCOCCNC(=O)[C@@H]1CSCC(=O)N[C@@H](CCCCNC(=O)COCC(=O)NCCOCCOCCOCCOCCOCCNC(=O)CONC(=O)c2ccc(F)nc2)C(=O)N[C@H]2CSSC[C@H](NC(=O)[C@H](CC(=O)O)NC(=O)CNC(=O)[C@H](CCCN=C(N)N)NC2=O)C(=O)N[C@@H](Cc2ccccc2)C(=O)C1 |
